US6355799B1, “Substituted benzene compounds, process for their preparation, and herbicidal and defoliant compositions containing them” (ISK Americas Incorporated, priority 1997, dated 2002)

Columns and labels:
Type in all cases: in vivo
[1] = tested on: redroot pigweed (Amaranthus retroflexus, AMARE); experiment: Pre-emerge test, greenhouse herbicide activity screening; settings: rating scale 0-100, 14 days after application
How it was run: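 Rating: 0–100 visual injury, 14 DAA. Application: acetone, 187 l/ha, 15–1000 g ai/ha, flat-fan track sprayer with nozzle 40–45 cm above soil or canopy. Post-emerge runs used 0.25% v/v surfactant on 2–3 leaf plants.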

[2] = tested on: barnyardgrass (Echinochloa crus-galli, ECHCG); experiment: as above; settings: rating scale 0-100, 14 days after application
How it was run: (§1)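 Sandy loam pots; pre-emerge: sown 1 d pre-spray, surface-watered after, then bottom-watered. Post-emerge: sown 8–21 d before, 2–3 leaf stage, + 0.25% v/v NIS, bottom-watered. Acetone, 187 l/ha track spray, 15–1000 g ai/ha. 0–100 injury score, day 14.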

[3] = tested on: green foxtail (Setaria viridis, SETVI); experiment: as above; settings: rating scale 0-100, 14 days after application
How it was run: as §1

[4] = tested on: ivyleaf morningglory (Ipomoea hederacea, IPOHE); experiment: as above; settings: rating scale 0-100, 14 days after application
How it was run: as §1

[5] = tested on: johnsongrass (Sorghum halepense, SORHA); experiment: as above; settings: rating scale 0-100, 14 days after application
How it was run: as §1

[6] = tested on: lambsquarters (Chenopodium album, CHEAL); experiment: as above; settings: rating scale 0-100, 14 days after application
How it was run: as §1

[7] = tested on: large crabgrass (Digitaria sanguinalis, DIGSA); experiment: as above; settings: rating scale 0-100, 14 days after application
How it was run: as §1

[8] = tested on: sicklepod (Cassia obtusifolia, CASOB); experiment: as above; settings: rating scale 0-100, 14 days after application
How it was run: as §1

[9] = tested on: velvetleaf (Abutilon theophrasti, ABUTH); experiment: as above; settings: rating scale 0-100, 14 days after application
How it was run: as §1

[10] = tested on: field corn (Zea mays L., var. Dekalb 535, CORN); experiment: Pre-emerge test, crop safety; settings: rating scale 0-100, 14 days after application
How it was run: (§2)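 Visual ratings on a 0-100 scale (0 no damage, 100 all plants dead) were taken at 14 days after treatment. Rates of 15-1000 g ai/ha in acetone, 187 l/ha, were sprayed onto soil one day after planting (pre-emerge) or onto 2-3 leaf plants with 0.25% v/v surfactant (post-emerge).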

[11] = tested on: upland rice (Oryza sp., var. Tebonnet, RICE); experiment: Pre-emerge test, crop safety; settings: rating scale 0-100, 14 days after application
How it was run: as §2

[12] = tested on: barnyardgrass (Echinochloa crus-galli, ECHCG); experiment: Post-emerge test, greenhouse herbicide activity screening; settings: rating scale 0-100 (0 no damage, 100 complete death), 14 days after application
How it was run: (§3)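 Herbicidal damage is scored 0 (none) to 100 (complete plant death) two weeks after a simulated field spray. Rates span 15–1000 g ai/ha, delivered in acetone at 187 l/ha. For post-emergence treatments, plants have 2–3 leaves and the spray carries 0.25% v/v non-ionic surfactant.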

[13] = tested on: green foxtail (Setaria viridis, SETVI); experiment: as above; settings: rating scale 0-100 (0 no damage, 100 complete death), 14 days after application
How it was run: as §3

[14] = tested on: ivyleaf morningglory (Ipomoea hederacea, IPOHE); experiment: as above; settings: rating scale 0-100 (0 no damage, 100 complete death), 14 days after application
How it was run: as §3

[15] = tested on: johnsongrass (Sorghum halepense, SORHA); experiment: as above; settings: rating scale 0-100 (0 no damage, 100 complete death), 14 days after application
How it was run: as §3

[16] = tested on: lambsquarters (Chenopodium album, CHEAL); experiment: as above; settings: rating scale 0-100 (0 no damage, 100 complete death), 14 days after application
How it was run: as §3

[17] = tested on: large crabgrass (Digitaria sanguinalis, DIGSA); experiment: as above; settings: rating scale 0-100 (0 no damage, 100 complete death), 14 days after application
How it was run: as §3

[18] = tested on: redroot pigweed (Amaranthus retroflexus, AMARE); experiment: as above; settings: rating scale 0-100 (0 no damage, 100 complete death), 14 days after application
How it was run: as §3

[19] = tested on: sicklepod (Cassia obtusifolia, CASOB); experiment: as above; settings: rating scale 0-100 (0 no damage, 100 complete death), 14 days after application
How it was run: as §3

[20] = tested on: velvetleaf (Abutilon theophrasti, ABUTH); experiment: as above; settings: rating scale 0-100 (0 no damage, 100 complete death), 14 days after application
How it was run: as §3

[21] = tested on: field corn (Zea mays L., var. Dekalb 535, CORN); experiment: Post-emerge test, crop safety; settings: rating scale 0-100 (0 no damage, 100 complete death), 14 days after application
How it was run: as §1

[22] = tested on: upland rice (Oryza sp., var. Tebonnet, RICE); experiment: Post-emerge test, crop safety; settings: rating scale 0-100 (0 no damage, 100 complete death), 14 days after application
How it was run: as §1

Question: `C#CCOC(=O)C(Cl)Cc1c(OC)c(Cl)cc(F)c1-n1c(=O)cc(C(F)(F)F)n(C)c1=O` (single isomer, unassigned) [14-19] was tested. Which “Pre-emerge herbicidal activity, phytotoxicity rating AMARE” value ([1]; 63 g ai/ha) did it give?
Answer: 0

Question: And the “Pre-emerge herbicidal activity, phytotoxicity rating AMARE” value ([1]; 250 g ai/ha)?
Answer: 90

Question: What about the “Pre-emerge herbicidal activity, phytotoxicity rating ECHCG” value ([2]; 63 g ai/ha) of the same molecule?
Answer: 0

Question: And the “Pre-emerge herbicidal activity, phytotoxicity rating ECHCG” value ([2]; 250 g ai/ha)?
Answer: 0

Question: What about the “Pre-emerge herbicidal activity, phytotoxicity rating SETVI” value ([3]; 63 g ai/ha) of the same molecule?
Answer: 0

Question: And the “Pre-emerge herbicidal activity, phytotoxicity rating SETVI” value ([3]; 250 g ai/ha)?
Answer: 0

Question: And the “Pre-emerge herbicidal activity, phytotoxicity rating IPOHE” value ([4]; 63 g ai/ha)?
Answer: 0

Question: What about the “Pre-emerge herbicidal activity, phytotoxicity rating IPOHE” value ([4]; 250 g ai/ha) of the same molecule?
Answer: 0

Question: What about the “Pre-emerge herbicidal activity, phytotoxicity rating SORHA” value ([5]; 63 g ai/ha) of the same molecule?
Answer: 0

Question: And the “Pre-emerge herbicidal activity, phytotoxicity rating SORHA” value ([5]; 250 g ai/ha)?
Answer: 0

Question: What about the “Pre-emerge herbicidal activity, phytotoxicity rating CHEAL” value ([6]; 63 g ai/ha) of the same molecule?
Answer: 0

Question: What about the “Pre-emerge herbicidal activity, phytotoxicity rating CHEAL” value ([6]; 250 g ai/ha) of the same molecule?
Answer: 80

Question: And the “Pre-emerge herbicidal activity, phytotoxicity rating DIGSA” value ([7]; 63 g ai/ha)?
Answer: 0

Question: What about the “Pre-emerge herbicidal activity, phytotoxicity rating DIGSA” value ([7]; 250 g ai/ha) of the same molecule?
Answer: 80

Question: What about the “Pre-emerge herbicidal activity, phytotoxicity rating CASOB” value ([8]; 63 g ai/ha) of the same molecule?
Answer: 0

Question: What about the “Pre-emerge herbicidal activity, phytotoxicity rating CASOB” value ([8]; 250 g ai/ha) of the same molecule?
Answer: 0

Question: And the “Pre-emerge herbicidal activity, phytotoxicity rating ABUTH” value ([9]; 63 g ai/ha)?
Answer: 0

Question: What about the “Pre-emerge herbicidal activity, phytotoxicity rating ABUTH” value ([9]; 250 g ai/ha) of the same molecule?
Answer: 50

Question: What about the “Pre-emerge phytotoxicity rating, crop damage CORN” value ([10]; 63 g ai/ha) of the same molecule?
Answer: 0

Question: What about the “Pre-emerge phytotoxicity rating, crop damage CORN” value ([10]; 250 g ai/ha) of the same molecule?
Answer: 0

Question: And the “Pre-emerge phytotoxicity rating, crop damage RICE” value ([11]; 63 g ai/ha)?
Answer: 0

Question: What about the “Pre-emerge phytotoxicity rating, crop damage RICE” value ([11]; 250 g ai/ha) of the same molecule?
Answer: 0

Question: What about the “Post-emerge Herbicidal Activity, phytotoxicity rating ECHCG” value ([12]; Rate 63 g ai/ha) of the same molecule?
Answer: 100

Question: What about the “Post-emerge Herbicidal Activity, phytotoxicity rating ECHCG” value ([12]; Rate 250 g ai/ha) of the same molecule?
Answer: 100

Question: What about the “Post-emerge Herbicidal Activity, phytotoxicity rating SETVI” value ([13]; Rate 63 g ai/ha) of the same molecule?
Answer: 0

Question: What about the “Post-emerge Herbicidal Activity, phytotoxicity rating SETVI” value ([13]; Rate 250 g ai/ha) of the same molecule?
Answer: 30

Question: And the “Post-emerge Herbicidal Activity, phytotoxicity rating IPOHE” value ([14]; Rate 63 g ai/ha)?
Answer: 30

Question: And the “Post-emerge Herbicidal Activity, phytotoxicity rating IPOHE” value ([14]; Rate 250 g ai/ha)?
Answer: 90

Question: And the “Post-emerge Herbicidal Activity, phytotoxicity rating SORHA” value ([15]; Rate 63 g ai/ha)?
Answer: 0

Question: What about the “Post-emerge Herbicidal Activity, phytotoxicity rating SORHA” value ([15]; Rate 250 g ai/ha) of the same molecule?
Answer: 0

Question: And the “Post-emerge Herbicidal Activity, phytotoxicity rating CHEAL” value ([16]; Rate 63 g ai/ha)?
Answer: 90

Question: What about the “Post-emerge Herbicidal Activity, phytotoxicity rating CHEAL” value ([16]; Rate 250 g ai/ha) of the same molecule?
Answer: 100

Question: What about the “Post-emerge Herbicidal Activity, phytotoxicity rating DIGSA” value ([17]; Rate 63 g ai/ha) of the same molecule?
Answer: 100

Question: What about the “Post-emerge Herbicidal Activity, phytotoxicity rating DIGSA” value ([17]; Rate 250 g ai/ha) of the same molecule?
Answer: 100

Question: And the “Post-emerge Herbicidal Activity, phytotoxicity rating AMARE” value ([18]; Rate 63 g ai/ha)?
Answer: 90

Question: And the “Post-emerge Herbicidal Activity, phytotoxicity rating AMARE” value ([18]; Rate 250 g ai/ha)?
Answer: 100

Question: What about the “Post-emerge Herbicidal Activity, phytotoxicity rating CASOB” value ([19]; Rate 63 g ai/ha) of the same molecule?
Answer: 40

Question: And the “Post-emerge Herbicidal Activity, phytotoxicity rating CASOB” value ([19]; Rate 250 g ai/ha)?
Answer: 70

Question: And the “Post-emerge Herbicidal Activity, phytotoxicity rating ABUTH” value ([20]; Rate 63 g ai/ha)?
Answer: 60

Question: And the “Post-emerge Herbicidal Activity, phytotoxicity rating ABUTH” value ([20]; Rate 250 g ai/ha)?
Answer: 100

Question: And the “Post-emerge phytotoxicity rating CORN (crop damage)” value ([21]; Rate 63 g ai/ha)?
Answer: 0

Question: And the “Post-emerge phytotoxicity rating CORN (crop damage)” value ([21]; Rate 250 g ai/ha)?
Answer: 40

Question: What about the “Post-emerge phytotoxicity rating RICE (crop damage)” value ([22]; Rate 63 g ai/ha) of the same molecule?
Answer: 0

Question: And the “Post-emerge phytotoxicity rating RICE (crop damage)” value ([22]; Rate 250 g ai/ha)?
Answer: 20
